{"source": "paper doi:10.1101/2024.12.09.627564", "about": "“Cannabinoid inhibition of mechanosensitive K^+ channels” (bioRxiv, 2024)", "key": {"TRAAKA198E": {"target": "T1, TRAAKA198E (Homo sapiens, UniProt Q9NYG8, A172E)", "T1 construct": "The transcribed messages encode H. sapiens TRAAK amino acids 1–393; expressed in transfected cells; host or cells: Xenopus laevis oocytes, cRNA injection", "T1 sequence (Q9NYG8 1-393 A172E)": "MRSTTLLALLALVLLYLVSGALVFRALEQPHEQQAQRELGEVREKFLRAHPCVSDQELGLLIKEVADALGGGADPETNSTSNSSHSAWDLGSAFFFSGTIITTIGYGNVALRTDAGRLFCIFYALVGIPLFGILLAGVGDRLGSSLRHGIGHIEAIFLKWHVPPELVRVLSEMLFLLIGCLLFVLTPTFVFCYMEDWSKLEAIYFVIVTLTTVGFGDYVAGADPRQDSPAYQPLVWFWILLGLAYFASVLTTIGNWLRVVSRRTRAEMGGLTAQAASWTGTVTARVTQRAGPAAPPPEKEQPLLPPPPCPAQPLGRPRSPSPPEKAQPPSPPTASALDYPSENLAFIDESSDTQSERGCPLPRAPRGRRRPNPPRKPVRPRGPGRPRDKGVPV", "assay": "Excised patch recording of TRAAK mutant A198E", "format": "biochemical", "description": "For patch clamp recording from Xenopus oocytes, genes encoding full-length Homo sapiens TRAAK (UniProt Q9NYG8–2), TREK-1 (UniProt O95069), and TREK-2 (UniProt P57789) were codon optimized for eukaryotic expression, synthesized (Genewiz), and cloned into a modified pGEMHE vector using Xho1 and EcoR1 restriction sites. The transcribed messages encode H. sapiens TRAAK amino acids 1–393, TREK-1 amino acids 1–426, or TREK-2 amino acids 1–538 with an additional three amino acids (SNS) at the C terminus. TRAAK mutants were introduced by polymerase chain reaction (PCR). Linearized DNA was transcribed in vitro using T7 polymerase. Complementary RNA (0.1 to 10 ng for TRAAK, TREK-1, TREK-2, and mutants) in 50 nL H2O was injected into Xenopus laevis oocytes extracted from anesthetized frogs. Currents were recorded at 25 °C from inside-out patches excised from oocytes 1 to 5 d after RNA injection. […]\nPatches were evaluated with voltage-step protocols to confirm TRAAK expression and minimal non-specific leak based on reversal potential. Currents were recorded using an Axopatch 200B amplifier (Molecular Devices) at a bandwidth of 1 kHz and digitized with an Digidata 1550B (Molecular Devices) at 100–500 kHz using pClamp10.7 software. […] In an effort to minimize variability associated with differences in resting membrane tension, we targeted patches with low basal curvature and low resting channel activity and ensured measured pressure difference across the patch was as close to zero as possible at rest to prevent mechanical activation of channels. Data were analyzed using Clampfit 10.7, Excel, and Graphpad Prism software. […]\nTo avoid cannabinoid absorption to plastic, cannabinoid solutions were made in glass vials and diluted by weight, perfusion was performed using glass tubing pulled from borosilicate glass Pasteur pipettes (Fisherbrand, Cat# 13–678-20C), and recordings were performed in glass chambers. Channel activity was continuously recorded during perfusion steps. […]"}, "[1]": {"tested_on": "voltage-gated sodium channels", "settings": "cited from earlier work"}, "GPR55": {"tested_on": "GPR55", "design": "method as in PMID 17876302, PMID 29669714, PMID 36787750", "settings": "negative modulation of GPR55; cited from earlier work"}}, "data": [{"smiles": "C=C(C)[C@@H]1CCC(C)=C[C@H]1c1c(O)cc(CCCCC)cc1O", "note": "[CBD, Cannabidiol]", "values": [{"measurement": "IC50", "setting": "TRAAKA198E", "result": "496 ± 26", "unit": "nM"}, {"measurement": "inhibition of channel activity at high concentration", "setting": "TRAAKA198E; 10 μM CBD", "result": "fully inhibited"}, {"measurement": "fold less sensitive than wild-type TRAAK", "setting": "TRAAKA198E; A198E vs wild-type", "result": "~ 4 fold"}, {"measurement": "IC50", "setting": "[1]", "result": "2000 to 10000", "unit": "nM"}, {"measurement": "IC50", "setting": "GPR55", "result": "~500", "unit": "nM"}]}]}
